Reference: US20040019018A1, “Rigid pyrrolidone modulators of pkc” (priority 2003, published 2004)

Tests used:
PC12 cells = conditions: cited from earlier work
sAPP = conditions: cited from earlier work
113pS K+ channels = conditions: cited from earlier work
[1] = system: LNCaP prostate cancer cells; experiment: Induction of apoptosis in LNCaP prostate cancer cells (DAPI staining); type: cell-based
Method: The capacity of inducing apoptosis by compound (1) was evaluated in a model of LNCaP prostate cancer cells. It is well established that in this model phorbol esters (e.g., PMA) activate PKC to induce apoptosis (reference 13). LNCaP cells were treated with compound (1) for 1 h, and apoptosis was assessed 24 h later.
Control cells or cells infected for 14 h with adenoviruses for LacZ, PKCα, or PKCδ (multiplicity of infection=10 pfu/cell) were treated with different concentrations of compound (1) or PMA for 1 h. Cells were collected 24 h later and stained with DAPI. The incidence of apoptosis in each preparation was analyzed by counting 500 cells and determining the percentage of apoptotic cells. Results are the mean±standard error of three independent experiments.
It is well established that PKCα and PKCδ are the isozymes that mediate phorbol ester-induced apoptosis in LNCaP cells (references 13c-e). A model that has been used to assess isozyme-specificity is the overexpression of specific PKCs by an adenoviral system. Infection of LNCaP cells with adenoviruses for PKCs leads to a high expression of the corresponding PKC isozyme, as determined by Western-blot analysis, kinase activity, or [^3H]PDBu binding (reference 13e).

CCCCCCCCC#Cc1ccc2c(c1)C[C@@H](CO)NC(=O)[C@H](C(C)C)N2C [BL, (2S, 5S)-8-(1-decynyl)benzolactam]
sAPP secretion (PC12 cells): ~3 fold | sAPP secretion in control fibroblasts (sAPP; control fibroblasts, 10 μM BL): significant increases of sAPP secretion | sAPP secretion over basal levels (sAPP; fibroblasts): enhance sAPP secretion over basal levels | responsiveness of AD fibroblast cell lines to the TEA challenge (113pS K+ channels): restored the responsiveness

CCCCCCCCCCCCCC(=O)O[C@@H]1[C@@H](C)[C@@]2(O)[C@@H](C=C(CO)C[C@]3(O)C(=O)C(C)=C[C@@H]23)[C@@H]2C(C)(C)[C@]12OC(C)=O [PMA, reference compound]
apoptotic effect with control adenovirus ([1]; LNCaP cells infected with LacZ adenovirus): did not affect the apoptotic effect | apoptotic response with overexpression of PKC isozymes ([1]; LNCaP cells infected with adenoviruses for PKCα or PKCδ): marked potentation

CN[C@@H]1C[C@H]2O[C@@](C)([C@@H]1OC)n1c3ccccc3c3c4c(c5c6ccccc6n2c5c31)C(=O)NC4 [Staurosporine]
effect on BL-induced sAPP secretion (sAPP; control and AD fibroblasts): eliminated the effects of BL
